molecular target: T1, p53 Y220C (Homo sapiens, UniProt P04637, Y220C); experiment: In vitro DNA binding activity assay (HTRF / TR-FRET): stabilization of p53 Y220C and increase of its DNA binding activity; type: biochemical; conditions: recombinant His-tagged p53 Y220C DNA binding domain (aa 94-312), biotin-labeled consensus DNA, incubated at 27° C. or 29° C. for 60 min
T1 construct: The recombinant protein was a truncation mutant containing only amino acids 94-312 of p53; made in house; host or cells: E. coli
T1 sequence (P04637 94-312, change not shown): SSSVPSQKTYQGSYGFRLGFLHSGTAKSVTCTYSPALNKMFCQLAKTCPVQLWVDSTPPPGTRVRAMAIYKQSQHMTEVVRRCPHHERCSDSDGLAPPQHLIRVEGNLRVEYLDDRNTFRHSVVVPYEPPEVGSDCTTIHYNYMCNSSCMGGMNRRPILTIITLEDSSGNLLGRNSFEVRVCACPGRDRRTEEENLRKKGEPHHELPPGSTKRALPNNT
How it was run: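 Homogeneous time-resolved fluorescence with E. coli-derived p53 Y220C and biotinylated consensus DNA. Room-temperature incubations of 15 and 20 min precede reading. SC150 denotes the compound concentration required for 50% increased DNA binding.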

| Compound | SC150 (concentration of the compound required to increase the DNA binding activity by 50%) |
| --- | --- |
| COCCN1CC[C@@H](Nc2cccc3c2cc(C#CCNc2ccc(C(=O)OC)cc2OC)n3CC(F)(F)F)[C@@H](F)C1 [Compound 897A] | + (+ = 0 μM ≤ SC150 < 0.05 μM) |
| COc1cc(S(C)(=O)=O)ccc1NCC#Cc1cc2c(N[C@H]3CC[C@H](N4CCC(OC)CC4)CC3)cccc2n1CC(F)(F)F [Compound 350A, 2-{3-[(4-methane-sulfonyl-2-methoxy-phenyl)amino]prop-1-yn-1-yl}-N-[(1R,4R)-4-(4-methoxypiperidin-1-yl)cyclohexyl]-1-(2,2,2-trifluoroethyl)-1H-indol-4-amine] | + (+ = 0 μM ≤ SC150 < 0.05 μM) |
| COc1cc(S(C)(=O)=O)ccc1NCC#Cc1cc2c(N[C@@H]3CCN(C(C)(C)C)C[C@@H]3F)cccc2n1CC(F)(F)F [Compound 1068A, N-((3S,4R)-1-(tert-butyl)-3-fluoropiperidin-4-yl)-2-(3-((2-methoxy-4-(methylsulfonyl)phenyl)amino)prop-1-yn-1-yl)-1-(2,2,2-trifluoroethyl)-1H-indol-4-amine] | + (+ = 0 μM ≤ SC150 < 0.05 μM) |
| COc1cc(S(N)(=O)=O)ccc1NCC#Cc1cc2c(NC3CCN(CC(COC(=O)C(C)C)OC(=O)C(C)C)CC3)cccc2n1CC(F)(F)F (centres unmarked) [Compound 589A, 1-{4-[(2-{3-[(2-methoxy-4-sulfamoylphenyl)amino]prop-1-yn-1-yl}-1-(2,2,2-trifluoroethyl)-1H-indol-4-yl)amino]piperidin-1-yl}-3-[(2-methylpropanoyl)oxy]propan-2-yl 2-methylpropanoate] | ++ (++ = 0.05 μM ≤ SC150 < 0.1 μM) |
| COc1cc(-c2nccs2)ccc1NCC#Cc1cc2c(NC3CCN(C)CC3)cccc2n1CC(F)(F)F [Compound 509A, 2-(3-{[2-methoxy-4-(1,3-thiazol-2-yl)phenyl]amino}prop-1-yn-1-yl)-N-(1-methylpiperidin-4-yl)-1-(2,2,2-trifluoroethyl)-1H-indol-4-amine] | + (+ = 0 μM ≤ SC150 < 0.05 μM) |
| COCCN(CCOC)[C@H]1CC[C@H](Nc2cccc3c2cc(C#CCNc2ccc(S(N)(=O)=O)cc2OCF)n3CC(F)(F)F)CC1 [Compound 166A, 3-(fluoromethoxy)-4-{[3-(4-{[(1R,4R)-4-[bis(2-methoxyethyl)amino]cyclohexyl]amino}-1-(2,2,2-trifluoro-ethyl)-1H-indol-2-yl)prop-2-yn-1-yl]amino} benzene-1-sulfonamide] | + (+ = 0 μM ≤ SC150 < 0.05 μM) |
| CS(=O)(=O)c1ccc(NCC#Cc2cc3c(N[C@H]4CC[C@@H](N5CC6(COC6)C5)CC4)cccc3n2CC(F)(F)F)c(O)c1 [Compound 215A, 5-methanesulfonyl-2-{[3-(4-{[(1S,4S)-4-{2-oxa-6-azaspiro [3.3]heptan-6-yl}cyclo-hexyl]amino}-1-(2,2,2-trifluoroethyl)-1H-indol-2-yl)prop-2-yn-1-yl]amino}phenol] | + (+ = 0 μM ≤ SC150 < 0.05 μM) |
| COc1cc(C(N)=O)ccc1NCC#Cc1cc2c(N[C@H]3CCN(C)C[C@H]3F)cccc2n1CC(F)(F)F (racemic) [Compound 782A, rac-4-{[3-(4-{[(3R,4S)-3-fluoro-1-methylpiperidin-4-yl]amino}-1-(2,2,2-trifluoroethyl)-1H-indol-2-yl)prop-2-yn-1-yl]amino}-3-methoxybenzamide] | + (+ = 0 μM ≤ SC150 < 0.05 μM) |
| COc1cc(S(=O)(=O)N2CCOCC2)ccc1NCC#Cc1cc2c(N[C@H]3CC[C@H](N(C)C)CC3)cccc2n1CC(F)(F)F [Compound 67A, (1R,4R)-N^4-[2-(3-{[2-methoxy-4-(morpholine-4-sulfonyl)phenyl]amino}prop-1-yn-1-yl)-1-(2,2,2-trifluoro-ethyl)-1H-indol-4-yl]-N^1,N^1-dimethyl-cyclohexane-1,4-diamine] | + (+ = 0 μM ≤ SC150 < 0.05 μM) |
| CCC(=O)NS(=O)(=O)c1ccc(NCC#Cc2cc3c(NC4CCN(CC(COC)OC(=O)CC)CC4)cccc3n2CC(F)(F)F)c(OC)c1 (centres unmarked) [Compound 627A, 1-methoxy-3-(4-{[2-(3-{[2-methoxy-4-(propanamidosulfonyl)phenyl]amino}prop-1-yn-1-yl)-1-(2,2,2-trifluoroethyl)-1H-indol-4-yl]amino}piperidin-1-yl)propan-2-yl propanoate] | + (+ = 0 μM ≤ SC150 < 0.05 μM) |
| COc1cc(S(C)(=O)=O)ccc1NCC#Cc1cc2c(N[C@@H]3CCC(O)C[C@@H]3F)cccc2n1CC(F)(F)F (stereo partly drawn) [Compound 43A, (3S,4R)-3-fluoro-4-[(2-{3-[(4-methanesulfonyl-2-methoxyphenyl)amino]prop-1-yn-1-yl}-1-(2,2,2-trifluoroethyl)-1H-indol-4-yl)amino]cyclohexan-1-ol] | + (+ = 0 μM ≤ SC150 < 0.05 μM) |
| CCOC(=O)c1ccc(NCC#Cc2cc3c(N[C@@H]4CCN(CC)C[C@@H]4F)cccc3n2CC(F)(F)F)c(OC)c1 [Compound 823A] | + (+ = 0 μM ≤ SC150 < 0.05 μM) |
| COc1cc(S(C)(=O)=O)ccc1NCC#Cc1cc2c(N[C@@H]3CC[C@H](N(C)C)C[C@H]3F)cccc2n1CC(F)(F)F [Compound 938A] | + (+ = 0 μM ≤ SC150 < 0.05 μM) |
| CNC(=O)c1ccc(NCC#Cc2cc3c(N[C@H]4CC[C@H](N5CC6(COC6)C5)CC4)cccc3n2CC(F)(F)F)c(OCC#N)c1 [Compound 242A, 3-(cyanomethoxy)-N-methyl-4-{[3-(4-{[(1R,4R)-4-{2-oxa-6-azaspiro[3.3]heptan-6-yl}cyclohexyl]amino}-1-(2,2,2-trifluoroethyl)-1H-indol-2-yl)prop-2-yn-1-yl]amino}benzamide] | + (+ = 0 μM ≤ SC150 < 0.05 μM) |
| COc1cc(S(=O)(=O)NC(C)=O)ccc1NCC#Cc1cc2c(N[C@H]3CC[C@@H](N4CC5(COC5)C4)CC3)cccc2n1CC(F)(F)F [Compound 209A, N-(3-methoxy-4-{[3-(4-{[(1S,4S)-4-{2-oxa-6-azaspiro[3.3]heptan-6-yl}cyclohexyl]amino}-1-(2,2,2-trifluoroethyl)-1H-indol-2-yl)prop-2-yn-1-yl]amino}benzene-sulfonyl)acetamide] | + (+ = 0 μM ≤ SC150 < 0.05 μM) |
| COc1cc(S(N)(=O)=O)ccc1NCC#Cc1cc2c(N[C@H]3CC[C@H](N4CCC(OC)CC4)CC3)cccc2n1CC(F)(F)F [Compound 354A, 3-methoxy-4-{[3-(4-{[(1R,4R)-4-(4-methoxypiperidin-1-yl)cyclohexyl]amino}-1-(2,2,2-trifluoroethyl)-1H-indol-2-yl)prop-2-yn-1-yl]amino}benzene-1-sulfonamide] | + (+ = 0 μM ≤ SC150 < 0.05 μM) |
| COCC(O)CN1CCC(Nc2cccc3c2cc(C#CCNc2ccc(S(C)(=O)=O)cc2C)n3CC(F)(F)F)CC1 (centres unmarked) [Compound 703A, 1-{4-[(2-{3-[(4-methanesulfonyl-2-methylphenyl)amino]prop-1-yn-1-yl}-1-(2,2,2-trifluoroethyl)-1H-indol-4-yl)amino]piperidin-1-yl}-3-methoxypropan-2-ol] | + (+ = 0 μM ≤ SC150 < 0.05 μM) |
| CNC(=O)c1ccc(NCC#Cc2cc3c(N[C@H]4CC[C@H](N5CCCC5)CC4)cccc3n2CC(F)(F)F)c(OC)c1 [Compound 420A, 3-methoxy-N-methyl-4-{[3-(4-{[(1R,4R)-4-(pyrrolidin-1-yl)cyclohexyl]amino}-1-(2,2,2-trifluoroethyl)-1H-indol-2-yl)prop-2-yn-1-yl]amino}benzamide] | + (+ = 0 μM ≤ SC150 < 0.05 μM) |
| COc1cc(S(C)(=O)=O)ccc1NCC#Cc1cc2c(NC3CC(CO)(CCl)C3)cccc2n1CC(F)(F)F (centres unmarked) [Compound 19A, [1-(chloromethyl)-3-[(2-{3-[(4-methanesulfonyl-2-methoxyphenyl)amino]prop-1-yn-1-yl}-1-(2,2,2-trifluoroethyl)-1H-indol-4-yl)amino]cyclobutyl]methanol] | + (+ = 0 μM ≤ SC150 < 0.05 μM) |
| COc1cc(C(=O)N[C@@H](CCC(N)=O)C(=O)O)ccc1NCC#Cc1cc2c(N[C@@H]3CCN(C)C[C@@H]3F)cccc2n1CC(F)(F)F [Compound 930A, (2S)-4-carbamoyl-2-[(4-{[3-(4-{[(3S,4R)-3-fluoro-1-methylpiperidin-4-yl]amino}-1-(2,2,2-trifluoroethyl)-1H-indol-2-yl)prop-2-yn-1-yl]amino}-3-methoxyphenyl)formamido]butanoic acid] | + (+ = 0 μM ≤ SC150 < 0.05 μM) |
| COc1cc(S(N)(=O)=O)ccc1NCC#Cc1cc2c(NC3CCN(C(=O)CO)CC3)cccc2n1CC(F)(F)F [Compound 748A] | + (+ = 0 μM ≤ SC150 < 0.05 μM) |
| COCC(O)CN1CCC(Nc2cccc3c2cc(C#CCNc2cc(F)c(S(C)(=O)=O)cc2OC)n3CC(F)(F)F)CC1 (centres unmarked) [Compound 677A, 1-{4-[(2-{3-[(5-fluoro-4-methanesulfonyl-2-methoxyphenyl)amino]prop-1-yn-1-yl}-1-(2,2,2-trifluoroethyl)-1H-indol-4-yl)amino]piperidin-1-yl}-3-methoxypropan-2-ol] | + (+ = 0 μM ≤ SC150 < 0.05 μM) |
| COc1cc(S(C)(=O)=O)ccc1NCC#Cc1cc2c(N[C@@H]3CCC[C@H](n4nn[nH]c4=O)C3)cccc2n1CC(F)(F)F [Compound 448A, 1-[(1S,3R)-3-[(2-{3-[(4-methanesulfonyl-2-methoxyphenyl)amino]prop-1-yn-1-yl}-1-(2,2,2-trifluoroethyl)-1H-indol-4-yl)amino]cyclo-hexyl]-4,5-dihydro-1H-1,2,3,4-tetrazol-5-one] | ++ (++ = 0.05 μM ≤ SC150 < 0.1 μM) |
